Results on twelve compounds are retold here after ChEMBL document CHEMBL6092220 (J Med Chem, 2024).

Test [1] deals with T1, Protein cereblon/Signal transducer and activator of transcription 3 (Homo sapiens, UniProt P40763+Q96SW2). The test is described as follows: PROTAC activity at his-SUMO-tagged STAT3 (127 to 688 residues)/CRBN in human HeLa cells assessed as induction of STAT3 degradation incubated for 24 hrs by TECAN SPARK microplate reader analysis. It is filed as cell-based.
Test [2] deals with T1, Protein cereblon/Signal transducer and activator of transcription 3. In words: PROTAC activity at his-SUMO-tagged STAT3 (127 to 688 residues)/CRBN in human HeLa cells assessed as induction of STAT3 degradation incubated for 24 hrs by TECAN SPARK microplate reader analysis relative to control. It is filed as cell-based.

For the compound `CN1CC[C@H]2CC[C@@H](C(=O)N[C@@H](CCC(N)=O)C(=O)N[C@H](C(=O)NCCCCCCCCCC#Cc3cccc4c3CN(C3CCC(=O)NC3=O)C4)c3ccccc3)N2C(=O)[C@@H](NC(=O)c2cc3cc(C(F)(F)P(=O)(O)O)ccc3s2)C1` (some centres undefined), in test [1], the DC50 is 300 nM. For the same compound, the Emax in test [2] was determined as 66%.
On to `CN1CC[C@H]2CC[C@@H](C(=O)N[C@@H](CCC(N)=O)C(=O)N[C@H](CCC(=O)N3CCC(C#Cc4cccc5c4CN(C4CCC(=O)NC4=O)C5)CC3)c3ccccc3)N2C(=O)[C@@H](NC(=O)c2cc3cc(C(F)(F)P(=O)(O)O)ccc3s2)C1` (some centres undefined), for which the DC50 in test [1] is over 5000 nM. In addition, the Emax in test [2] came to 31%.
On the same counts, the results for `CN1CC[C@H]2CC[C@@H](C(=O)N[C@@H](CCC(N)=O)C(=O)N[C@@H](C(=O)N3CCC(CCC#Cc4cccc5c4CN(C4CCC(=O)NC4=O)C5=O)CC3)C(C)(C)C)N2C(=O)[C@@H](NC(=O)c2cc3cc(C(F)(F)P(=O)(O)O)ccc3s2)C1` (some centres undefined) are 1010 nM and 80%.
In the case of `CN1CC[C@H]2CC[C@@H](C(=O)N[C@@H](CCC(N)=O)C(=O)N[C@H](C(=O)NCCCCCCCC#Cc3cccc4c3CN(C3CCC(=O)NC3=O)C4=O)c3ccccc3)N2C(=O)[C@@H](NC(=O)c2cc3cc(C(F)(F)P(=O)(O)O)ccc3s2)C1` (some centres undefined), in test [1], the DC50 amounted to 1500 nM. In test [2], the Emax worked out at 52%.
For `CN1CC[C@H]2CC[C@@H](C(=O)N[C@@H](CCC(N)=O)C(=O)N[C@H](C(=O)NCCCCC#Cc3cccc4c3CN(C3CCC(=O)NC3=O)C4=O)c3ccccc3)N2C(=O)[C@@H](NC(=O)c2cc3cc(C(F)(F)P(=O)(O)O)ccc3s2)C1` (some centres undefined), the DC50 in test [1] was over 5000 nM. In test [2], the Emax came to 42%.
On the same counts, the results for `CN1CC[C@H]2CC[C@@H](C(=O)N[C@@H](CCC(N)=O)C(=O)N[C@H](CC(=O)N3CCC(C#Cc4cccc5c4CN(C4CCC(=O)NC4=O)C5)CC3)c3ccccc3)N2C(=O)[C@@H](NC(=O)c2cc3cc(C(F)(F)P(=O)(O)O)ccc3s2)C1` (some centres undefined) are over 5000 nM and 0%.
Regarding `CN1CC[C@H]2CC[C@@H](C(=O)N[C@@H](CCC(N)=O)C(=O)N[C@H](C(=O)N3CCC(CCC#Cc4cccc5c4CN(C4CCC(=O)NC4=O)C5=O)CC3)c3ccccc3)N2C(=O)[C@@H](NC(=O)c2cc3cc(C(F)(F)P(=O)(O)O)ccc3s2)C1` (some centres undefined), the DC50 in test [1] was determined as 300 nM. Besides, the Emax in test [2] was found to be 86%.
With `CN1CC[C@H]2CC[C@@H](C(=O)N[C@@H](CCC(N)=O)C(=O)N[C@H](C(=O)N3CCN(CCC#Cc4cccc5c4CN(C4CCC(=O)NC4=O)C5=O)CC3)c3ccccc3)N2C(=O)[C@@H](NC(=O)c2cc3cc(C(F)(F)P(=O)(O)O)ccc3s2)C1` (some centres undefined), in test [1], the DC50 is 2500 nM. Also, in test [2], the Emax was 62%.
On the same counts, the results for `CN1CC[C@H]2CC[C@@H](C(=O)N[C@@H](CCC(N)=O)C(=O)N[C@@H](C(=O)NCCCCCCC#Cc3cccc4c3CN(C3CCC(=O)NC3=O)C4=O)c3ccccc3)N2C(=O)[C@@H](NC(=O)c2cc3cc(C(F)(F)P(=O)(O)O)ccc3s2)C1` (some centres undefined) are over 5000 nM and 36%.
On the same counts, the results for `CN1CC[C@H]2CC[C@@H](C(=O)N[C@@H](CCC(N)=O)C(=O)N[C@H](C(=O)NCCCCCC#Cc3cccc4c3CN(C3CCC(=O)NC3=O)C4=O)c3ccccc3)N2C(=O)[C@@H](NC(=O)c2cc3cc(C(F)(F)P(=O)(O)O)ccc3s2)C1` (some centres undefined) are over 5000 nM and 34%.
The like results for `CN1CC[C@H]2CC[C@@H](C(=O)N[C@@H](CCC(N)=O)C(=O)N[C@@H](C(=O)NCCCCCCCCC#Cc3cccc4c3CN(C3CCC(=O)NC3=O)C4=O)c3ccccc3)N2C(=O)[C@@H](NC(=O)c2cc3cc(C(F)(F)P(=O)(O)O)ccc3s2)C1` (some centres undefined) were, in that order, 800 nM and 60%.
Turning to `CN1CC[C@H]2CC[C@@H](C(=O)N[C@@H](CCC(N)=O)C(=O)N[C@H](C(=O)N3CCC(CCC#Cc4cccc5c4CN(C4CCC(=O)NC4=O)C5=O)CC3)C3CCCCC3)N2C(=O)[C@@H](NC(=O)c2cc3cc(C(F)(F)P(=O)(O)O)ccc3s2)C1` (some centres undefined), the DC50 in test [1] came to 260 nM. For the same compound, the Emax in test [2] came to 91%.
